Two compounds from article PMC4186383, “Evaluation of radical scavenging properties of shikonin” (Journal of Clinical Biochemistry and Nutrition, 2014) can be followed below.

Structures are written as SMILES.

Experiment [1] deals with T1, Nox2 (NADPH oxidase 2, flavocytochrome b558) (Sus scrofa, UniProt P52649).
T1 construct: gene CYBB; detergent-solubilized resting neutrophil membranes (1 pmol Nox2/flavocytochrome b558) plus cytosol; with cytosolic components of the Nox2 system
Put plainly: cell-free reconstitution assay, SOD-sensitive cytochrome c reduction. The format is biochemical.

The target of experiment [2] is T1, Nox2 (NADPH oxidase 2, flavocytochrome b558). Kind of experiment: cell-free reconstitution assay, NADPH oxidation. The format is biochemical.

Regarding `CC(C)=CC[C@H](O)C1=CC(=O)c2c(O)ccc(O)c2C1=O` [alkannin], the half-maximal inhibitory concentration (IC50) in experiment [1] amounted to 2200 nM. In other words, the single-digit micromolar range.

In experiment [2], `CC(C)=CC[C@@H](O)C1=CC(=O)c2c(O)ccc(O)c2C1=O` [shikonin] came in with an IC50 of 1100 nM.

What is called IC50 is the concentration that gives 50% inhibition. Read a high IC50 as a need for much substance.
